Values joined by “and” are separate entries in the source; they are usually repeats but may differ in a detail not shown here. Equal values may be shown once. Toxic doses and inconclusive results are not listed. Rule as the data show it: active = T/C of 150% or more; inactive = T/C below 125%.
Test system: L1210 leukemia ip in BDF1 mice, survival T/C
Assay: NCI In Vivo Anticancer Drug Screen. Data for tumor model L1210 Leukemia (intraperitoneal) in B6D2F1 (BDF1) mice
Settings: endpoint: mean survival time, higher = longer survival
Summary of the method: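 Antitumor effect is assessed in tumor-bearing animals. Survival in the compound arm is compared with a vehicle-dosed control arm and expressed as their quotient.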

[1] = dose: 100.0 mg/kg/injection, schedule: Q01DX009 (ip), vehicle: Klucel (hydroxypropylcellulose) (HPC)
[2] = dose: 200.0 mg/kg/injection, schedule: Q01DX009 (ip), vehicle: Klucel (hydroxypropylcellulose) (HPC)
[3] = dose: 400.0 mg/kg/injection, schedule: Q01DX009 (ip), vehicle: Klucel (hydroxypropylcellulose) (HPC)

Measured: T/C

O=C(O)c1cc(Cl)cc(I)c1Br
inactive: dose: 75.0 mg/kg/injection, schedule: Q04DX002 (ip), vehicle: Klucel (hydroxypropylcellulose) (HPC) 100 % of control | dose: 100.0 mg/kg/injection, schedule: Q04DX002 (ip), vehicle: Klucel (hydroxypropylcellulose) (HPC) 94 % of control | dose: 150.0 mg/kg/injection, schedule: Q04DX002 (ip), vehicle: Klucel (hydroxypropylcellulose) (HPC) 96 % of control | dose: 200.0 mg/kg/injection, schedule: Q04DX002 (ip), vehicle: Klucel (hydroxypropylcellulose) (HPC) 105 % of control | dose: 300.0 mg/kg/injection, schedule: Q04DX002 (ip), vehicle: Klucel (hydroxypropylcellulose) (HPC) 100 % of control | dose: 400.0 mg/kg/injection, schedule: Q04DX002 (ip), vehicle: Klucel (hydroxypropylcellulose) (HPC) 105 % of control

CC(=O)OC1C2CCC(C2)C1C (stereo not given)
inactive: dose: 100.0 mg/kg/injection, schedule: Q01DX009 (ip), vehicle: saline with Tween-80 98 % of control | dose: 200.0 mg/kg/injection, schedule: Q01DX009 (ip), vehicle: saline with Tween-80 104 % of control | dose: 400.0 mg/kg/injection, schedule: Q01DX009 (ip), vehicle: saline with Tween-80 96 % of control

CC(C)(C)c1ccc(OC(=O)NCCCCCCNC(=O)Oc2ccc(C(C)(C)C)cc2)cc1
inactive: dose: 100.0 mg/kg/injection, schedule: Q01DX009 (ip), vehicle: other 96 % of control | dose: 200.0 mg/kg/injection, schedule: Q01DX009 (ip), vehicle: other 91 % of control | dose: 400.0 mg/kg/injection, schedule: Q01DX009 (ip), vehicle: other 87 % of control

CC(C)CC(NC(=O)C1(N)C2CC3CC(C2)CC1C3)C(=O)O (stereo not given)
inactive: dose: 22.5 mg/kg/injection, schedule: Q01DX009 (ip), vehicle: Klucel (hydroxypropylcellulose) (HPC) 100 % of control | dose: 45.0 mg/kg/injection, schedule: Q01DX009 (ip), vehicle: Klucel (hydroxypropylcellulose) (HPC) 103 % of control | dose: 90.0 mg/kg/injection, schedule: Q01DX009 (ip), vehicle: Klucel (hydroxypropylcellulose) (HPC) 97 % of control | [1] 108 % of control | [2] 107 % of control | [3] 100 % of control

CCN1c2ccccc2C(Cl)(c2ccc(N(C)C)cc2)c2ccccc21
inactive: dose: 1.8 mg/kg/injection, schedule: Q03HX024 (ip), vehicle: saline 96 % of control | dose: 2.6 mg/kg/injection, schedule: Q03HX024 (ip), vehicle: saline 88 % of control | dose: 3.9 mg/kg/injection, schedule: Q03HX024 (ip), vehicle: saline 95 % of control | dose: 5.9 mg/kg/injection, schedule: Q03HX024 (ip), vehicle: saline 101 % of control | dose: 6.25 mg/kg/injection, schedule: Q01DX009 (ip), vehicle: saline 93 % of control | dose: 6.25 mg/kg/injection, schedule: Q04DX003 (ip), vehicle: saline 95 % of control | dose: 8.8 mg/kg/injection, schedule: Q01DX009 (ip), vehicle: saline 101 % of control | dose: 8.8 mg/kg/injection, schedule: Q03HX024 (ip), vehicle: saline 101 % of control and 104 % of control | dose: 12.5 mg/kg/injection, schedule: Q01DX001 (ip), vehicle: saline 101 % of control | dose: 12.5 mg/kg/injection, schedule: Q01DX009 (ip), vehicle: saline 115 % of control | dose: 12.5 mg/kg/injection, schedule: Q04DX003 (ip), vehicle: saline 108 % of control | dose: 13.0 mg/kg/injection, schedule: Q01DX009 (ip), vehicle: saline 105 % of control | dose: 18.0 mg/kg/injection, schedule: Q01DX001 (ip), vehicle: saline 103 % of control | dose: 18.0 mg/kg/injection, schedule: Q04DX003 (ip), vehicle: saline 104 % of control | dose: 20.0 mg/kg/injection, schedule: Q01DX009 (ip), vehicle: saline 106 % of control | dose: 25.0 mg/kg/injection, schedule: Q01DX001 (ip), vehicle: saline 111 % of control | dose: 25.0 mg/kg/injection, schedule: Q01DX009 (ip), vehicle: saline 112 % of control | dose: 25.0 mg/kg/injection, schedule: Q04DX003 (ip), vehicle: saline 104 % of control | dose: 26.0 mg/kg/injection, schedule: Q01DX001 (ip), vehicle: saline 103 % of control | dose: 26.0 mg/kg/injection, schedule: Q04DX003 (ip), vehicle: saline 102 % of control | dose: 30.0 mg/kg/injection, schedule: Q01DX009 (ip), vehicle: saline 98 % of control | dose: 39.0 mg/kg/injection, schedule: Q01DX001 (ip), vehicle: saline 104 % of control | dose: 39.0 mg/kg/injection, schedule: Q04DX003 (ip), vehicle: saline 103 % of control

CCC(=O)Nc1ccccc1OC
inactive: dose: 100.0 mg/kg/injection, schedule: Q04DX003 (ip), vehicle: Klucel (hydroxypropylcellulose) (HPC) 100 % of control | dose: 200.0 mg/kg/injection, schedule: Q04DX003 (ip), vehicle: Klucel (hydroxypropylcellulose) (HPC) 115 % of control | dose: 400.0 mg/kg/injection, schedule: Q04DX003 (ip), vehicle: Klucel (hydroxypropylcellulose) (HPC) 102 % of control

O=C(Nc1ccccc1F)Nc1cccc2ccc(O)cc12
inactive: dose: 100.0 mg/kg/injection, schedule: Q01DX009 (ip), vehicle: alcohol 95 % of control | dose: 200.0 mg/kg/injection, schedule: Q01DX009 (ip), vehicle: alcohol 98 % of control | dose: 400.0 mg/kg/injection, schedule: Q01DX009 (ip), vehicle: alcohol 93 % of control

Nc1ccc(S(=O)(=O)CC(=O)N2CCOCC2)cc1
inactive: dose: 100.0 mg/kg/injection, schedule: Q04DX003 (ip), vehicle: saline with Tween-80 100 % of control | dose: 200.0 mg/kg/injection, schedule: Q04DX003 (ip), vehicle: saline with Tween-80 97 % of control | dose: 400.0 mg/kg/injection, schedule: Q04DX003 (ip), vehicle: saline with Tween-80 97 % of control

CCN(CC)CCCC(C)Nc1cccc2c1C(=O)c1c(c(O)c3ccccc3c1O)C2=O (stereo not given)
inactive: dose: 25.0 mg/kg/injection, schedule: Q04DX002 (ip), vehicle: saline 93 % of control | dose: 50.0 mg/kg/injection, schedule: Q04DX002 (ip), vehicle: saline 93 % of control | dose: 100.0 mg/kg/injection, schedule: Q04DX002 (ip), vehicle: saline 93 % of control

COc1ccc2c(ccc3c2ncc2c(=O)[nH][nH]c23)c1
inactive: dose: 50.0 mg/kg/injection, schedule: Q01DX009 (ip), vehicle: Klucel (hydroxypropylcellulose) (HPC) 92 % of control | [1] 92 % of control | [2] 92 % of control

COc1cc2nc(/C=C/c3nc4cc(OC)c(OC)cc4[nH]3)[nH]c2cc1OC
inactive: dose: 25.0 mg/kg/injection, schedule: Q01DX001 (ip), vehicle: saline with Tween-80 100 % of control | dose: 50.0 mg/kg/injection, schedule: Q01DX001 (ip), vehicle: saline with Tween-80 100 % of control | dose: 100.0 mg/kg/injection, schedule: Q01DX001 (ip), vehicle: saline with Tween-80 94 % of control

Cc1cccc(OCCOc2cccc(C)c2)c1
inactive: dose: 100.0 mg/kg/injection, schedule: Q01DX001 (ip), vehicle: saline 98 % of control | dose: 200.0 mg/kg/injection, schedule: Q01DX001 (ip), vehicle: saline 94 % of control

Cc1ccc(S(=O)(=O)OCC2OCOC2C2OCOC2COS(=O)(=O)c2ccc(C)cc2)cc1 (stereo not given)
inactive: dose: 56.25 mg/kg/injection, schedule: Q01DX009 (ip), vehicle: carboxymethylcellulose (CMC) 95 % of control | dose: 100.0 mg/kg/injection, schedule: Q01DX001 (ip), vehicle: carboxymethylcellulose (CMC) 95 % of control | dose: 112.5 mg/kg/injection, schedule: Q01DX009 (ip), vehicle: carboxymethylcellulose (CMC) 89 % of control | dose: 200.0 mg/kg/injection, schedule: Q01DX001 (ip), vehicle: carboxymethylcellulose (CMC) 96 % of control | dose: 225.0 mg/kg/injection, schedule: Q01DX009 (ip), vehicle: carboxymethylcellulose (CMC) 87 % of control | dose: 400.0 mg/kg/injection, schedule: Q01DX001 (ip), vehicle: carboxymethylcellulose (CMC) 90 % of control

O=C(Nc1ccc(Cl)c([N+](=O)[O-])c1)Nc1nc(C(F)(F)F)cc(=O)[nH]1
inactive: [1] 98 % of control | [2] 95 % of control | [3] 93 % of control

Reference: PubChem BioAssay AID248 (DTP/NCI, 2004)
